Test results taken from US10550079B2, “Artificial self-sufficient cytochrome P450s” (University of Florida Research Foundation, Incorporated, priority 2015, dated 2020).
“Also recorded” adds a separate entry of the source. Values belong to the molecule of their own block, whether it stands above or below them.

Legend:
TxtE-BM3R [1] = target: T1, TxtE-BM3R (UniProt C9ZDC6+P14779); assay: Substrate binding affinity by UV-Vis spectral titration, TxtE-BM3R; design: species or system S. scabies 87.22 / B. megaterium ATCC 14581; details: for binding affinity lowered compared with native substrate L-tryptophan: TxtE-BM3R; for Kd: […] enzyme, 25 mM Tris-HCl pH 8.0, for 4-F-DL-tryptophan total concentration of the racemic mixture used; for binding affinity to TxtE-BM3R compared with TxtE: tighter/higher than to TxtE
T1 construct: P450BM3 (CYP102A1) reductase domain BM3R with its Domcut-predicted native linker, from B. megaterium ATCC 14581 (GenBank J04832.1); made in house; host or cells: E. coli BL21 (DE3)-GOLD
Experimental: (§1) Purified TxtE and its fusion enzymes were spectrally analyzed following a previous protocol (Ding et al. 2008). Briefly, the absorbance spectra (400-600 nm) of TxtE variants (3 M) in Tris-HCl (25 mM, pH 8) buffer were recorded with a Shimadzu UV2700 dual beam UV-Vis spectrophotometer. The ferric heme of enzymes was then saturated with carbon monoxide (Airgas) through bubbling and the spectra of the saturated enzyme solutions were recorded. Immediately, sodium dithionite solution (30 μL, 0.5 M) was added to reduce ferric ion, and reduced spectra were taken subsequently. CO reduced difference spectra of all enzymes were created by subtracting the CO binding spectra from the reduced spectra. Data were further analyzed by GraphPad Prism 4. […] Not more than 10 μl of substrate stock solutions prepared in the above buffer were added to the sample cuvette with an interval of 0.5 μl, and the spectra were recorded from 300 nm to 500 nm each time. The equal volume of buffer was added to the reference cuvette. The changes in absorbance (ΔA) were determined by subtracting the absorbance at ˜420 nm from that at ˜390 nm. Data were then fitted to Michaelis-Menten equation using GraphPad Prism 4.
as §1, with “previous protocol.” for “previous protocol (Ding et al. 2008).”, “(3 μM)” for “(3 M)”, “to the” for “to Michaelis-Menten”, “equation of ΔA=ΔAmax[L]/(Kd+[L])” for “equation”

TxtE [2] = target: T2, TxtE (Streptomyces scabiei, UniProt C9ZDC6); design: inferred from the pET28 vector and Ni-NTA purification) (C); made in house; host or cells: E. coli BL21 (DE3)-GOLD; details: previous studies (Barry et al. 2012; Dodani et al. 2014); cited from earlier work
TxtE-BM3R [3] = target: T3, TxtE-BM3R (UniProt C9ZDC6); assay: Substrate binding affinity by UV-Vis spectral titration, TxtE-BM3R; design: species or system S. scabies 87.22 / B. megaterium ATCC 14581; details: Kd, […] enzyme, 25 mM Tris-HCl pH 8.0; for 4-F-DL-tryptophan total concentration of the racemic mixture used
T3 construct: P450BM3 (CYP102A1) reductase domain BM3R with its Domcut-predicted native linker, from B. megaterium ATCC 14581 (GenBank J04832.1); made in house; host or cells: E. coli BL21 (DE3)-GOLD
Experimental: as §1
as §1, with “previous protocol.” for “previous protocol (Ding et al. 2008).”, “(3 μM)” for “(3 M)”, “to the” for “to Michaelis-Menten”, “equation of ΔA=ΔAmax[L]/(Kd+[L])” for “equation”

TxtE-RhFRed [4] = target: T4, TxtE-RhFRed (Streptomyces scabiei, UniProt C9ZDC6); assay: Substrate binding affinity by UV-Vis spectral titration, TxtE-RhFRed; design: species or system S. scabies 87.22; details: […] enzyme, 25 mM Tris-HCl pH 8.0
T4 sequence (C9ZDC6 1-406): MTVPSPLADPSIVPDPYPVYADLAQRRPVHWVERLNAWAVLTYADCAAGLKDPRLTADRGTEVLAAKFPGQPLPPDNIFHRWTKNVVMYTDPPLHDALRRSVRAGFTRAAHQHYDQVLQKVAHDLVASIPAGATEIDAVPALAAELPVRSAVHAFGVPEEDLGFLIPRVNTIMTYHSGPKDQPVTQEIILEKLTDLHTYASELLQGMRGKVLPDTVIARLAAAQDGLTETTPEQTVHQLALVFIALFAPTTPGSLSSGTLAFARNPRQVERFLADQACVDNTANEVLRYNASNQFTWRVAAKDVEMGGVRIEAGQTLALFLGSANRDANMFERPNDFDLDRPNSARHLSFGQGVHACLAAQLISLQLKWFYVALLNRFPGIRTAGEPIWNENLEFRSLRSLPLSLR
T4 sequence (Q8KU27 445-773 partner): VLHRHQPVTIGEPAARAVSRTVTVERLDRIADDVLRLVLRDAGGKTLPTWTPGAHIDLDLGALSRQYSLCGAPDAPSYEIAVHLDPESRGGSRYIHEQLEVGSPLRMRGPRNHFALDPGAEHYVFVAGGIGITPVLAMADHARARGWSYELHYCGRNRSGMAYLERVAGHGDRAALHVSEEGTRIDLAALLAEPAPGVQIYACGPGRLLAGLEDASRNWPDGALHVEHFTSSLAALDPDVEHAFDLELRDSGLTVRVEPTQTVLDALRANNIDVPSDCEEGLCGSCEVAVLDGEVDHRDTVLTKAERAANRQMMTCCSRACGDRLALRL
Experimental: as §1, with “The equal volume of buffer was added to the reference cuvette.” left out, “Data were then fitted to Michaelis-Menten equation using GraphPad Prism 4.” left out
(§2) Purified TxtE and its fusion enzymes were spectrally analyzed following a previous protocol. Briefly, the absorbance spectra (400-600 nm) of TxtE variants (3 μM) in Tris-HCl (25 mM, pH 8) buffer were recorded with a Shimadzu UV2700 dual beam UV-Vis spectrophotometer. […] Data were further analyzed by GraphPad Prism 4. […]

TxtE-RhFRed [5] = target: T4, TxtE-RhFRed; assay: Substrate binding affinity by UV-Vis spectral titration, TxtE-RhFRed*; design: species or system S. scabies 87.22; details: […] enzyme, 25 mM Tris-HCl pH 8.0
Experimental: as §1, with “The equal volume of buffer was added to the reference cuvette.” left out, “Data were then fitted to Michaelis-Menten equation using GraphPad Prism 4.” left out
as §2

TxtE [6] = target: T2, TxtE; assay: Substrate binding affinity by UV-Vis spectral titration, wild type TxtE; design: inferred from the pET28 vector and Ni-NTA purification) (C); made in house; host or cells: E. coli BL21 (DE3)-GOLD; species or system S. scabies 87.22; details: […] enzyme, 25 mM Tris-HCl pH 8.0
Experimental: as §1, with “The equal volume of buffer was added to the reference cuvette.” left out, “Data were then fitted to Michaelis-Menten equation using GraphPad Prism 4.” left out
as §2

TxtE [7] = target: T2, TxtE; assay: Binding affinities of L-tryptophan and substituted tryptophan analogs (FIG. 29A)
Experimental: Binding affinities and relative nitration conversions for L-tryptophan and several substituted tryptophan analogs were also assessed (FIGS. 29A-29B). […] Furthermore, the nitration activity of TxtE and TxtEBM3R was assessed. In addition to substrate, enzyme reactions typically contained NADP+, an NADPH regeneration system (glucose and glucose dehydrogenase, GDH), spinach ferredoxin (Fer) and ferredoxin reductase (Frd) as redox partners, and 3-[2-hydroxy-1-(l-methylethyl)-2-nitrosohydrazinyl]-1-propanamine (NOC-5) as an NO donor. Reverse-phase UHPLC coupled with a PDA detector and liquid chromatography-mass spectrometry (LC-MS, ESI positive) was employed to detect the nitrated products (FIG. 29B).

[8] = Stability of NO donor NOC-5 at different pH values and temperatures; assay type: physicochemical
Experimental: The stability of NO donor NOC-5 was first examined. Its solution was incubated at different pH value (4.5 to 9.5) and temperatures (4 to 65° C.) for 30 min. It was then used as NO donor in the P450 nitration reactions. […] To determine pH effects on the activity of TxtE and TxtEBM3R, enzyme (1.5 μM) reactions were performed in 100 mM Tris-Cl or sodium phosphate with various pH values (4.5 to 9.5) at 20° C., 300 rpm for 30 min. To determine enzyme pH stability, 5 μL of 30 μM enzyme solutions were incubated at buffers with different pH value (4.5 to 9.5). After 15 minutes, other reaction components (95 μL) were mixed to initiate nitration reactions as described above. […] Products were quantitated by HPLC as described above. Conversion rate (%) was calculated by the equation of the area of under the 4-nitro-l-tryptophan peak/the total areas of both substrate and product peaks*100. […]
The stability of NO donor NOC-5 was first examined by incubating it in solutions of different pH values (4.5 to 9.5) and temperatures (4 to 65° C.) for 30 min. […] Products were quantitated by HPLC as described above. Peak area was determined with software installed in the Shimadzu Prominence UHPLC system. Conversion rate (%) was calculated as product (nmol)/product+substrate (nmol)×100 based on the standard curves of Trp and 4-NO2-Trp generated. […]

Compound: NC(Cc1c[nH]c2cccc(F)c12)C(=O)O (racemic) [4-F-DL-tryptophan, 4-F-dl-tryptophan]
binding affinity lowered compared with native substrate L-tryptophan (TxtE-BM3R [1]): about 8 times
Kd (TxtE-BM3R [1]): 189 ± 11.1 µM
binding affinity to TxtE-BM3R compared with TxtE (TxtE-BM3R [1]): slightly tightened

Compound: N[C@@H](Cc1c[nH]c2ccc(F)cc12)C(=O)O [5-F-L-tryptophan, 5-F-l-tryptophan]
binding affinity lowered compared with native substrate L-tryptophan (TxtE-BM3R [1]): ~3 times
Kd (TxtE-BM3R [1]): 84.2 ± 4.37 µM
Kd (TxtE-BM3R [1]; listed as 5-F-l-tryptophan): 84.2 ± 4.4 µM
binding affinity to TxtE-BM3R compared with TxtE (TxtE-BM3R [1]): slightly tightened

Compound: N[C@H](Cc1c[nH]c2ccccc12)C(=O)O [D-tryptophan]
spectral changes induced in TxtE solution (TxtE [2]): unable to induce spectral changes

Compound: N[C@@H](Cc1c[nH]c2ccccc12)C(=O)O [L-tryptophan]
Kd (TxtE-BM3R [3]): 20.8 µM
Kd (TxtE-RhFRed [4]): 18.2 µM
Kd (TxtE-RhFRed [5]): 24.3 µM
Kd (TxtE [6]): 24.8 µM

Compound: N[C@H](CO)Cc1c[nH]c2ccccc12 [L-tryptophanol]
binding affinity relative to L-tryptophan (FIG. 29A) (TxtE [7]): significantly weakened interactions

stability at temperatures higher than 25° C. ([8]; 4 to 65° C., 30 min): decomposed quickly and significantly
Compound: CC(C)N(CCCN)/[N+]([O-])=N/O [NOC-5, 3-(Aminopropyl)-1-hydroxy-3-isopropyl-2-oxo-1-triazene]
stability at different pH values ([8]; pH 4.5 to 9.5, 30 min): stable in all tested pH values; also recorded: stable over a broad pH range; also recorded: stable at all tested pH values

Compound: O=C(O)C(=O)Cc1c[nH]c2ccccc12 [indole-3-pyruvate]
binding affinity relative to L-tryptophan (FIG. 29A) (TxtE [7]): significantly weakened interactions

Compound: C[C@](N)(Cc1c[nH]c2ccccc12)C(=O)O [α-Me-Trp]
binding affinity relative to L-tryptophan (FIG. 29A) (TxtE [7]): significantly weakened interactions
